Assay results published in patent US10653672B2, “Myogenesis promotor, muscle atrophy inhibitor, medical composition and TAZ activator” (National University Corporation Tokyo Medical and Dental …, priority 2014, dated 2020).
Values joined by “and” are separate entries in the source; they are usually repeats but may differ in a detail not shown here. Identical values can stand only once.

Assays:
cyclin D1 = assay: Quantitative real-time PCR, cyclin D1; type: cell-based, mouse; settings: C2C12 cells, 10 μM; for Normarized mRNA abundance, CyclinD1: listed as IBS008738
Experimental: (1) Quantitative real-time PCR was performed with C2C12 cells immediately before the induction of muscle formation (0 h), and after culturing under differentiation condition in a culture medium added with IBS008738 or DMSO at a concentration of 10 μM for 24 hours (24 h) and 72 hours (72 h), respectively. […] The line and error bar indicate the average value and the standard error, **p<0.05, and ns refers to not significant.
(2) Evaluation was also performed under the same condition on the connective tissue growth factor (CTGF) and cyclin D1, as TAZ targets in epidermal cells.
The quantitative real-time PCR was performed with SYBER Green (Roche) and ABI7500 Realtime PCR system (Applied Biosystems).

C2C12 cells [1] = assay: Evaluation of muscle differentiation markers by immunoblotting; type: cell-based, mouse; settings: 10 μM
Experimental: (1) C2C12 cells were cultured for 24 hours under growth condition in a culture medium added with IBS008738 or DMSO at a concentration of 10 μM, and switched to differentiation condition and the cultivation was continued. The expression of markers indicating muscle differentiation was determined with a predetermined antibody, on the C2C12 cells immediately after the completion of cultivation under growth condition (0 h), 24 hours after switching to differentiation condition (24 h), 48 hours after switching to differentiation condition (48 h) and 72 hours after switching to differentiation condition (72 h), respectively. Tubulin was used as a loading control (FIG. 3A).

C2C12 cells [2] = assay: Antagonistic action on myostatin in C2C12 cells; type: cell-based, mouse; settings: TAZ knocked down (si TAZ); with myostatin; differentiation condition 72 hours
Excerpt: Myostatin is a protein and a member of a transforming growth factor […] superfamily, and inhibits muscle growth and differentiation. Myostatin binds activin type IIB receptor and triggers SMAD2/3-dependent signaling. Since TAZ interacts with SMAD2/3, effects of IBS008738 on the signaling of myostatin was examined (FIGS. 8A to 8C). The line in the figures is 100 μm. The line and the error bar indicate the average value and the standard error, *p<0.05, […], ***p<0.001, ns refers to not significant.
(1) C2C12 cells in which TAZ was knocked down (si TAZ) and C2C12 cells in which TAZ was not knocked down (si Cont) were grown to confluence, respectively, A stock solution of 100 μg/mL myostatin in 4 mM […] with 0.1% (w/v) BSA and a stock solution of 10 mM IBS008738 in DMSO were prepared. The cells were cultured at differentiation condition for 72 hours in a 1 mL medium with 1 μL DMSO, a 1 mL medium with 1 μL myostatin stock solution, and a 1 mL medium with 1 μL IBS008738 stock solution. As a result, muscle formation of the C2C12 cells was inhibited in the case with only myostatin, but muscle formation of the C2C12 cells was recovered in the case with myostatin and IBS008738.
(2) The fusion index of C2C12 cells in which TAZ was knocked down (si TAZ) and C2C12 cells in which TAZ was not knocked down (si Cont), after being cultured under differentiation condition for 72 hours, was analyzed.
Expression of MHC of C2C12 cells in which TAZ was knocked down (si TAZ) and C2C12 cells in which TAZ was not knocked down (si Cont), after being cultured under differentiation condition for 72 hours, was analyzed by immunoblotting. As a result, expression of MHC decreased in the case with only myostatin, whereas it recovered in the case with myostatin and IBS008738 (see FIG. 8C).

A431 cells = assay: Tumor sphere formation of A431 cells; type: cell-based; settings: Ultra Low Attachment plate, serum-free medium, 10 μM, 10 days, maximum diameter of 30 cell aggregates
Experimental: (2) Each well of a 96-well plate was pre-coated with 30 μL BD Matrigel (trade name, Becton, Dickinson and Company). A431 cells were suspended in the 2% BD Matrigel at a concentration of 2.1×10^6 cells/mL. This cell solution (140 μL) was added with 0.17 μL of 10 mM IBS008739 stock solution in DMSO or 0.17 μL of DMSO, and used to layer the pre-coated wells, and proliferation in the 3D matrigel was observed (see FIG. 12B). 300 of A431 cells were placed in each well of Ultra Low Attachment 96-well plate, and cultured in a serum-free DMEM-F-12 medium containing 10 ng/mL FGF, 5 μg/mL insulin and 0.1% (w/v) BSA. Formation of tumor spheres was observed under the condition with 10 mM IBS008739 stock solution dissolved in DMSO so that the final concentration was 10 μM, or the condition with DMSO of the same volume (see FIG. 12C). The maximum diameter of 30 cell aggregates of 150 μm or more observed in the 3D matrigel or sphere formation condition) are measured as the size of 3D colony or sphere. The results are shown in Table 10 and FIGS. 12B and 12C. The line in the figure is 200 μm. The line and the error bar indicate the average value and the standard error, and ns refers to not significant.
Observation of the spheres and the 3D matrigel cultivation were performed by the following processes. […]

Cc1ccc(-n2cnc(/N=C/N3CCOCC3)c2C(=O)c2ccccc2)cc1 [exemplary compound 1]
gene transcription of cyclin D1 compared with DMSO (cyclin D1; 24 h and 72 h): no significant difference
Normarized mRNA abundance, CyclinD1 (cyclin D1; differentiation condition 24 h): 0.95 and 0.83 and 0.78
Normarized mRNA abundance, CyclinD1 (cyclin D1; differentiation condition 72 h): 0.62 and 0.60 and 0.61
decrease in the expression of Pax7 compared with DMSO (C2C12 cells [1]): faster to decrease
expression of MHC compared with DMSO (C2C12 cells [1]): became significant on days 3 and 4
expression of TAZ (C2C12 cells [1]): became most significant on day 2
expression of myogenin compared with DMSO (C2C12 cells [1]): became stronger after day 2
expression of MyoD compared with DMSO (C2C12 cells [1]; day 1 after the addition): slightly higher
muscle formation of the C2C12 cells (C2C12 cells [2]): did not recover
Sphere size, average size (μm) (A431 cells): 176.63 μm
